Like-named read-outs stand apart in the source and are kept apart here.
Tests used:
[1] = test system: C. albicans (ATCC strain 90028); assay: Antifungal microdilution broth assay (PrestoBlue), C. albicans; type: cell-based, Candida albicans; conditions: 100 μM; for inhibition at 100 µM: Candida albicans, ATCC90028, Table 4A, read-out: C. albicans inhibition (at 100 μM)
Description: Sigma-Aldrich) was used as the base medium for testing. […] solution of morpholinepropanesulfonic acid (MOPS; Sigma-Aldrich) was added to the RPMI to a final concentration of 0.165 M for buffering (RPMI-MOPS). This medium was adjusted to a pH of 7.0 with 10 M NaOH and filter sterilized. C. albicans (ATCC strain 90028), C. [NT] strain 66032), and C. tropicalis (ATCC strain 750) were cultured on potato dextrose agar (Sigma-Aldrich) plates, and incubated at 35° C. for 24 hours. For antifungal testing, overnight colonies were adjusted to 1.5×10^3 cells/mL, hereafter referred to as the test inoculum. PrestoBlue® (Life Technologies, Invitrogen, Carlsbad, Calif.), a resazurin-based cell viability reagent that, in metabolically active cells, is reduced from blue, non-fluorescent resazurin, to red, fluorescent resorufin, was used to assess inhibition of yeast growth by the aurones. […] Following addition of aurone, plates were then incubated for 24 hours at 35° C. PrestoBlue was added to a final concentration of 10% in each well and fluorescence read at 560 nm excitation and 590 nm emission, per manufacturer instructions, using a SpectraMax M2e spectrophotometer (Molecular Devices, LLC, Sunnyvale, Calif.). To optimize the PrestoBlue reduction time, RFUs were collected at 15 minute intervals for 4 hours using a reference antifungal. […] IC50 determination was calculated using GraphPad Prism version 7.01 for Windows (GraphPad Software, Inc., La Jolla, Calif.) from the RFUs at dilution points. Calculations were made with a nonlinear regression after transforming the molar concentrations of the aurones into the logarithmic form. Graphing was accomplished utilizing the same program following a four parameter curve fitting sigmoidal plot of the data. All aurones and controls were tested in triplicate and all testing was repeated in at least three independent experiments.

[2] = test system: Trypanosoma brucei brucei 427 cells; assay: T. brucei culture and assay (PrestoBlue); type: cell-based
[3] = test system: rat skeletal muscle cell line, L6; assay: cells; type: cell-based
Description: Cells were maintained in high glucose DMEM obtained from HyClone Laboratories (Logan, Utah) and supplemented with FCS and P/S at the same concentrations used for parasite culture. Cells were passaged every 3-4 days and maintained in a 37° C. humidified incubator in an atmosphere of 5% CO2. For assays. cells were detached, counted using a hemocytometer, and adjusted using fresh media to deliver 5×10^3 cells per well (90 μL) in black walled, flat clear bottom 96-well microtiter plates. After 3 h incubation for attachment, compounds diluted in culture medium were added (10 μL) to triplicate wells. Positive controls (cells treated with podophyllotoxin (Sigma, St. Louis, Mo.)), negative controls (untreated cells), solvent controls (DMSO) and media blanks were included on each plate. Following incubation for 71.5 h, 11 μL of PrestoBlue was added into each well.

[4] = test system: Trypanosoma cruzi Tulahuen cells expressing beta-galactosidase; assay: T. cruzi intracellular assay (beta-galactosidase, L6 host cells); conditions: for IC50: Trypanosoma cruzi, TULAHUEN; for Selectivity L6/TC-I: Table 3A
[5] = test system: Leishmania amazonensis promastigotes expressing beta-lactamase; assay: microbe, parasite or virus in culture; type: cell-based
Description: Leishmania amazonensis promastigotes expressing beta-lactamase (Buckner et al., Am. J. Trop. Med. Hyg. 72 (2005) 600-605. doi:72/5/600 [pii]) were cultured in RPMI supplemented with 10% fetal calf serum and 1% pen-strep-glut solution (Sigma) at 27° C. Stationary phase promastigotes were adjusted in fresh media, treated with compounds, and incubated at 37° C. At 24 hours, 100 uL of cultures was added to 50 uL of the CellTiter Glo® solution. Luminescence readings were taken with a spectrophotometer and used to calculate inhibition.

[6] = Table 2, L6 IC50 / T. brucei IC50
[7] = Trypanosoma brucei, Table 1, mean of 2(+) independent trials, read-out: IC50 T. brucei
[8] = Rattus norvegicus, Table 1, read-out: IC50 Toxicity (L6)
[9] = Rattus norvegicus, Table 3B, weighted means of two or more independent trials, read-out: IC50 L6
[10] = Table 2, L6 mammalian cells, read-out: IC50 Toxicity (L6)
[11] = Table 1, intracellular T. cruzi IC50
[12] = Table 2, L6 IC50 / T. cruzi IC50 (intracellular assay)
[13] = read-out: IC50 T. cruzi, Table 1, intracellular assay, mean of 2(+) trials (^c one trial)
[14] = read-out: IC50 T. cruzi, Table 2, intracellular assay, mean of 2(+) independent trials
[15] = read-out: IC50 TC-I, Table 3B, weighted means of two or more independent trials
[16] = Leishmania amazonensis, read-out: IC50 L. amaz.
[17] = Leishmania amazonensis, read-out: IC50 L. amaz. (footnote c: value obtained from one trial)
[18] = Rattus norvegicus, Table 3A, weighted means of two or more independent trials, read-out: IC50 L6
[19] = estimated from highest L6 dose tested where no L6 IC50
[20] = read-out: IC50 TC-I, Table 3A, weighted means of two or more independent trials
[21] = Table 2, L6 IC50 / L. amazonensis IC50
[22] = Table 2, mean of 2(+) independent trials, read-out: IC50 T. brucei

SMILES	inhibition at 100 µM [1] [%]	IC50 [2, 7] [µM]	IC50 [3, 8] [µM]	IC50 [4, 13] [µM]	IC50 [4, 14] [µM]	IC50 [5, 16] [µM]	other results
COc1ccc2c(c1)O/C(=C\c1ccc[nH]1)C2=O [Aurone 5003]	12.4	–	–	–	–	–	–
COc1ccc2c(c1)O/C(=C\c1ccc[nH]1)C2=O [Aurone 5004]	–	–	–	–	–	–	C. albicans inhibition (at 100 μM) ([1]; Table 4A): 14.7%
O=C1/C(=C/c2cnc[nH]2)Oc2ccccc21 [Aurone 6621, (Z)-2-((1H-imidazol-5-yl)methylene)benzofuran-3(2H)-one]	–	1.56	> 100	18.3	18.3	> 50	Selectivity L6/Tb ([2]; Table 1): >64.10; Selectivity L6/Tb [2, 6]: >64.10; IC50 ([2]; Trypanosoma brucei, read-out: IC50 TB): > 50 µM; IC50 [3, 9]: > 100 µM; IC50 [3, 10]: > 100 µM; Selectivity L6/Tc [4, 11]: >5.45; Selectivity L6/Tc [4, 12]: >5.45; Selectivity L6/Tc-I ([4]; Table 3B, estimated from highest L6 dose tested where no L6 IC50): >5.45; IC50 [4, 15]: 18.3 µM; IC50 ([5]; read-out: IC50 L. amaz., Table 2, mean of 2(+) independent trials): > 50 µM
COc1cc(OC)c2c(c1)O/C(=C\c1cccc([N+](=O)[O-])c1)C2=O [Aurone 7001]	–	> 50	> 100	> 50	–	22	–
CC(C)c1ccc(/C=C2\Oc3ccccc3C2=O)cc1 [Aurone 8002, (Z)-2-(4-isopropylbenzylidene)benzofuran-3(2H)-one]	–	43.4	89	16.6	16.6	2.88	IC50 [5, 17]: 2.88 µM
O=C1/C(=C/c2ccc(F)cc2)Oc2ccccc21 [Aurone 9002, (Z)-2-(4-fluorobenzylidene)benzofuran-3(2H)-one]	–	> 50	> 100	15.8	–	39.3	IC50 [3, 18]: > 100 µM; Selectivity L6/Tc [4, 11]: >6.33; Selectivity L6/TC-I [4, 19]: >6.33; IC50 [4, 20]: 15.8 µM; Selectivity L6/La ([5]; Table 1): >2.54
O=C1/C(=C/c2ccc(Cl)cc2)Oc2ccccc21 [Aurone 9019, (Z)-2-(4-chlorobenzylidene)benzofuran-3(2H)-one]	–	34.7	> 100	5.53	5.53	41.5	Selectivity L6/Tb ([2]; Table 1): >2.88; Selectivity L6/Tb [2, 6]: >2.88; Selectivity L6/Tb ([2]; Table 3A, estimated from highest L6 dose tested where no L6 IC50): >2.88; IC50 [3, 18]: > 100 µM; IC50 [3, 10]: > 100 µM; Selectivity L6/Tc [4, 11]: >18.08; Selectivity L6/Tc [4, 12]: >18.08; Selectivity L6/TC-I [4, 19]: >18.08; IC50 [4, 20]: 5.53 µM; Selectivity L6/La ([5]; Table 1): >2.41; Selectivity L6/La [5, 21]: >2.41
O=C1/C(=C/c2cccc(Br)c2)Oc2ccccc21 [Aurone 9030, (Z)-2-(3-bromobenzylidene)benzofuran-3(2H)-one]	–	> 50	> 100	7.35	7.35	< 1	IC50 [2, 22]: > 50 µM; IC50 [3, 18]: > 100 µM; IC50 [3, 10]: > 100 µM; Selectivity L6/Tc [4, 11]: >13.61; Selectivity L6/Tc [4, 12]: >13.61; Selectivity L6/TC-I [4, 19]: >13.61; IC50 [4, 20]: 7.35 µM; IC50 [5, 17]: < 1 µM; Selectivity L6/La ([5]; Table 1): >100; Selectivity L6/La [5, 21]: >100
O=C1/C(=C/c2c[nH]c3ccccc23)Oc2ccccc21 [Aurone 9062, (Z)-2-((1H-indol-3-yl)methylene)benzofuran-3(2H)-one]	–	24.8	64.7	8.53	8.53	1.66	IC50 [3, 9]: 64.7 µM; IC50 [4, 15]: 8.53 µM; IC50 ([4]; read-out: T. cruzi IC50 dose): < 10 µM
Cc1ccc(/C=C2\Oc3ccccc3C2=O)cc1 [Aurone 9065, (Z)-2-(4-methylbenzylidene)benzofuran-3(2H)-one]	–	> 50	> 100	8.63	8.63	1.37	IC50 [2, 22]: > 50 µM; IC50 [3, 18]: > 100 µM; IC50 [3, 10]: > 100 µM; Selectivity L6/Tc [4, 11]: >11.59; Selectivity L6/Tc [4, 12]: >11.59; Selectivity L6/TC-I [4, 19]: >11.59; IC50 [4, 20]: 8.63 µM; Selectivity L6/La ([5]; Table 1): >72.99; Selectivity L6/La [5, 21]: >72.99
CN(C)c1ccc(/C=C2\Oc3ccccc3C2=O)cc1 [Aurone 9087, (Z)-2-(4-(dimethylamino)benzylidene)benzofuran-3(2H)-one]	–	39	144	5.38	5.38	1.65	selectivity for T. cruzi (L6/Tc) [4]: 26.83; IC50 ([4]; read-out: T. cruzi IC50 dose): 5.38 µM
Cc1ccc(/C=C2\Oc3ccccc3C2=O)o1 [Aurone 9251]	–	35.3	85.5	3.57	–	2.36	IC50 [3, 9]: 85.5 µM; IC50 [4, 15]: 3.57 µM
O=C1/C(=C/c2cccc(O)c2)Oc2ccccc21 [Aurone 9252, (Z)-2-(3-hydroxybenzylidene)benzofuran-3(2H)-one]	–	34.9	> 100	16.5	16.5	1.52	–
O=C1/C(=C/c2cccs2)Oc2c1ccc(O)c2O [Sample 1001]	26	–	–	–	–	–	–
O=C1/C(=C/c2ccc(Br)cc2)Oc2c1ccc(O)c2O [Sample 1005]	43.9	–	–	–	–	–	–
COc1ccc(/C=C2\Oc3c(ccc(O)c3O)C2=O)cc1O [Sample 1009]	99.4	–	–	–	–	–	–
O=C1/C(=C/c2cccs2)Oc2ccccc21 [Sample 2004]	65.9	–	–	–	–	–	–
O=C1/C(=C/c2ccc[nH]2)Oc2ccccc21 [Sample 2021]	78.8	–	–	–	–	–	–

— patent US20200399238A1, “THERAPEUTIC AURONES” (MIDDLE TENNESSEE STATE UNIVERSITY, priority 2016, published 2020)
